In US10597388B2, “Pyridazinone herbicides” (FMC CORPORATION, priority 2014, dated 2020):

Legend:
Assay type in all cases: in vivo
corn (Zea mays) = experiment: Test A greenhouse herbicide test, pre- and postemergence; conditions: Postemergence
Method in brief: (§1)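 Seeds in loam–sand blend received a preemergence directed soil spray; plants at 2–10 cm, one- to two-leaf stage, received postemergence sprays. Compounds in a non-phytotoxic solvent with surfactant. After about 10 d in a greenhouse, injury rated visually versus untreated controls on a 0–100 scale (100 = complete control).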

[1] = tested on: foxtail, giant (giant foxtail, Setaria faberii); experiment: as above
Method in brief: as §1

kochia (Kochia scoparia) = experiment: as above
Method in brief: as §1

[2] = tested on: pigweed (Amaranthus retroflexus); experiment: as above
Method in brief: as §1

[3] = tested on: ragweed (common ragweed, Ambrosia elatior); experiment: as above
Method in brief: as §1

[4] = tested on: ryegrass, Italian (Italian ryegrass, Lolium multiflorum); experiment: as above
Method in brief: as §1

[5] = tested on: wheat (Triticum aestivum); experiment: as above; conditions: Postemergence
Method in brief: as §1

[6] = tested on: johnsongrass (Sorghum halepense); experiment: Test C greenhouse herbicide test, pre- and postemergence
Method in brief: (§2)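 Pre- and postemergence greenhouse screen; values are visual control ratings, 0 meaning no effect and 100 complete kill, assigned relative to untreated plants after 13 to 15 d.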

[7] = tested on: oilseed rape (Brassica napus); experiment: as above
Method in brief: as §2

[8] = tested on: ragweed (common ragweed, Ambrosia elatior); experiment: as above
Method in brief: as §2

[9] = 125 g ai/ha, 0 to 100 scale where 0 is no effect and 100 is complete control
[10] = 500 g ai/ha, visual rating after approx. 10 d, 0 to 100 scale (0 no effect, 100 complete control)
[11] = Postemergence, 125 g ai/ha, 0 to 100 scale where 0 is no effect and 100 is complete control
[12] = Postemergence, 500 g ai/ha, visual rating after approx. 10 d, 0 to 100 scale (0 no effect, 100 complete control)
[13] = Preemergence, 125 g ai/ha, 0 to 100 scale where 0 is no effect and 100 is complete control
[14] = Preemergence, 500 g ai/ha, 0 to 100 scale where 0 is no effect and 100 is complete control
[15] = 4 g ai/ha, preemergence, visual rating, scale 0 to 100 (0 no effect, 100 complete control), 13 to 15 d
[16] = Postemergence, 8 g ai/ha, scale 0 to 100 (0 no effect, 100 complete control)
[17] = Postemergence, 16 g ai/ha, scale 0 to 100 (0 no effect, 100 complete control)
[18] = Postemergence, 31 g ai/ha, scale 0 to 100 (0 no effect, 100 complete control)
[19] = Preemergence, 16 g ai/ha, scale 0 to 100, 0 is no effect, 100 is complete control
[20] = Preemergence, 31 g ai/ha, scale 0 to 100, 0 is no effect, 100 is complete control
[21] = 500 g ai/ha, 0 to 100 scale, 0 is no effect, 100 is complete control
[22] = Postemergence, 500 g ai/ha, 0 to 100 scale, 0 is no effect, 100 is complete control
[23] = Preemergence, 500 g ai/ha, 0 to 100 scale, 0 no effect, 100 complete control
[24] = Postemergence, 31 g ai/ha, 0 to 100 scale (0 no effect, 100 complete control)
[25] = Postemergence, 125 g ai/ha, scale 0 to 100, 0 is no effect, 100 is complete control
[26] = Postemergence, 250 g ai/ha, scale 0 to 100, 0 no effect, 100 complete control, 13 to 15 d
[27] = Preemergence, 62 g ai/ha, scale 0 to 100, 0 is no effect, 100 is complete control
[28] = Preemergence, 125 g ai/ha, scale 0 to 100, 0 is no effect, 100 is complete control
[29] = Preemergence, 250 g ai/ha, scale 0 to 100, 0 no effect, 100 complete control
[30] = postemergence, 62 g ai/ha, scale 0 to 100, 0 no effect, 100 complete control
[31] = Postemergence, 62 g ai/ha, 0 to 100 scale (0 no effect, 100 complete control)
[32] = postemergence, 125 g ai/ha, scale 0 to 100, 0 no effect, 100 complete control

Cc1ccc2ccc(Cl)cc2c1-c1c(O)c(C)nn(C)c1=O [Compound 144]
0: Plant response rating, Johnsongrass [6, 15] | Plant response rating, Oilseed Rape [7, 15]
10: Plant response rating, Johnsongrass [6, 16] | Plant response rating, Johnsongrass [6, 17] | Plant response rating, Johnsongrass [6, 18] | Plant response rating, Ragweed [8, 16] | Ragweed plant response rating [8, 16]
98: Plant response rating, Ragweed [8, 20]
85: Oilseed Rape plant response rating [7, 16]
100: Plant response rating, Foxtail, Giant [1, 11] | Plant response rating, Foxtail, Giant [1, 12] | Foxtail, Giant plant response rating [1, 13] | Plant response rating, Foxtail, Giant [1, 14] | Plant response rating, Kochia (kochia (Kochia scoparia); [11]) | Plant response rating, Kochia (kochia (Kochia scoparia); [12]) | Kochia plant response rating (kochia (Kochia scoparia); [13]) | Plant response rating, Kochia (kochia (Kochia scoparia); [14]) | Plant response rating, Pigweed [2, 11] | Plant response rating, Pigweed [2, 12] | Pigweed plant response rating [2, 13] | Plant response rating, Pigweed [2, 14] | Plant response rating, Ragweed [3, 11] | Plant response rating, Ragweed [3, 12] | Plant response rating, Ragweed [3, 14] | Plant response rating, Ryegrass, Italian [4, 11] | Plant response rating, Ryegrass, Italian [4, 12] | Plant response rating, Ryegrass, Italian [4, 14] | Plant response rating, Wheat [5, 10]
35: Plant response rating, Ragweed [8, 17] | Plant response rating, Ragweed [8, 18]
90: Plant response rating, Corn (corn (Zea mays); [10]) | Plant response rating, Wheat [5, 9]
60: Plant response rating, Corn (corn (Zea mays); [9]) | Plant response rating, Johnsongrass [6, 20]
5: Plant response rating, Oilseed Rape [7, 19]
70: Plant response rating, Oilseed Rape [7, 20] | Plant response rating, Ragweed [8, 15]
25: Plant response rating, Johnsongrass [6, 19]
20: Johnsongrass plant response rating [6, 16]
95: Plant response rating, Oilseed Rape [7, 16] | Plant response rating, Oilseed Rape [7, 17] | Plant response rating, Oilseed Rape [7, 18] | Plant response rating, Ragweed [8, 19]

CCc1sc2c(C)cc(C)cc2c1-c1c(O)c(C)nn(C)c1=O [Compound 57]
80: Plant response rating, Foxtail, Giant [1, 11] | Plant response rating, Kochia (kochia (Kochia scoparia); [11])
5: Johnsongrass plant response rating [6, 24] | Plant response rating, Johnsongrass [6, 25] | Johnsongrass plant response rating [6, 30] | Plant response rating, Oilseed Rape [7, 26]
100: Foxtail, Giant plant response rating [1, 13] | Plant response rating, Foxtail, Giant [1, 23] | Kochia plant response rating (kochia (Kochia scoparia); [22]) | Kochia plant response rating (kochia (Kochia scoparia); [13]) | Plant response rating, Kochia (kochia (Kochia scoparia); [23]) | Plant response rating, Pigweed [2, 11] | Pigweed plant response rating [2, 22] | Pigweed plant response rating [2, 13] | Plant response rating, Pigweed [2, 23] | Plant response rating, Ragweed [3, 11] | Ragweed plant response rating [3, 22] | Plant response rating, Ragweed [3, 23] | Plant response rating, Ryegrass, Italian [4, 23] | Plant response rating, Ragweed [8, 28] | Ragweed plant response rating [8, 29]
30: Corn plant response rating (corn (Zea mays); [21]) | Plant response rating, Oilseed Rape [7, 28]
20: Plant response rating, Corn (corn (Zea mays); [9])
95: Plant response rating, Ragweed [8, 26] | Plant response rating, Ragweed [8, 27]
70: Plant response rating, Ryegrass, Italian [4, 11] | Plant response rating, Ragweed [8, 20]
60: Oilseed Rape plant response rating [7, 29] | Ragweed plant response rating [8, 24]
90: Foxtail, Giant plant response rating [1, 22] | Ragweed plant response rating [3, 13] | Ryegrass, Italian plant response rating [4, 22] | Ryegrass, Italian plant response rating [4, 13] | Ragweed plant response rating [8, 30]
85: Plant response rating, Ragweed [8, 25]
10: Wheat plant response rating [5, 21] | Plant response rating, Johnsongrass [6, 26]
0: Plant response rating, Wheat [5, 9] | Plant response rating, Johnsongrass [6, 20] | Plant response rating, Johnsongrass [6, 27] | Plant response rating, Johnsongrass [6, 28] | Johnsongrass plant response rating [6, 29] | Oilseed Rape plant response rating [7, 24] | Plant response rating, Oilseed Rape [7, 25] | Plant response rating, Oilseed Rape [7, 20] | Plant response rating, Oilseed Rape [7, 27] | Oilseed Rape plant response rating [7, 30]

COC(=O)Oc1c(C)nn(C)c(=O)c1-c1ccc(F)c2ccccc12 [Compound 130]
0: Plant response rating, Corn (corn (Zea mays); [9]) | Plant response rating, Wheat [5, 9] | Plant response rating, Oilseed Rape [7, 18] | Oilseed Rape plant response rating [7, 31] | Plant response rating, Oilseed Rape [7, 26] | Oilseed Rape plant response rating [7, 32]
100: Plant response rating, Kochia (kochia (Kochia scoparia); [11]) | Plant response rating, Kochia (kochia (Kochia scoparia); [12]) | Plant response rating, Kochia (kochia (Kochia scoparia); [14]) | Plant response rating, Pigweed [2, 11] | Plant response rating, Pigweed [2, 12] | Plant response rating, Pigweed [2, 14] | Plant response rating, Ragweed [3, 12] | Plant response rating, Ryegrass, Italian [4, 11] | Plant response rating, Ryegrass, Italian [4, 12] | Ryegrass, Italian plant response rating [4, 13] | Plant response rating, Ryegrass, Italian [4, 14]
90: Plant response rating, Foxtail, Giant [1, 12] | Plant response rating, Foxtail, Giant [1, 14] | Pigweed plant response rating [2, 13] | Plant response rating, Ragweed [3, 14] | Ragweed plant response rating [8, 31]
70: Plant response rating, Foxtail, Giant [1, 11] | Plant response rating, Ragweed [3, 11]
30: Plant response rating, Corn (corn (Zea mays); [10]) | Foxtail, Giant plant response rating [1, 13] | Plant response rating, Wheat [5, 10]
20: Plant response rating, Johnsongrass [6, 26]
5: Plant response rating, Johnsongrass [6, 18] | Johnsongrass plant response rating [6, 31] | Johnsongrass plant response rating [6, 32]
60: Kochia plant response rating (kochia (Kochia scoparia); [13]) | Ragweed plant response rating [3, 13]
98: Plant response rating, Ragweed [8, 26] | Ragweed plant response rating [8, 32]
85: Plant response rating, Ragweed [8, 18]

CCC(=O)Oc1c(C)nn(C)c(=O)c1-c1ccc(Br)c2ccccc12 [Compound 134]
80: Plant response rating, Foxtail, Giant [1, 12] | Ragweed plant response rating [3, 13]
98: Oilseed Rape plant response rating [7, 29] | Ragweed plant response rating [8, 29]
95: Plant response rating, Oilseed Rape [7, 18] | Plant response rating, Ragweed [8, 27] | Plant response rating, Ragweed [8, 28]
20: Plant response rating, Corn (corn (Zea mays); [9]) | Plant response rating, Foxtail, Giant [1, 11]
70: Kochia plant response rating (kochia (Kochia scoparia); [13]) | Plant response rating, Ragweed [8, 20]
10: Plant response rating, Johnsongrass [6, 18] | Johnsongrass plant response rating [6, 31]
55: Plant response rating, Oilseed Rape [7, 20]
5: Plant response rating, Johnsongrass [6, 27] | Plant response rating, Johnsongrass [6, 28] | Johnsongrass plant response rating [6, 29] | Johnsongrass plant response rating [6, 32] | Ragweed plant response rating [8, 31] | Ragweed plant response rating [8, 32]
100: Plant response rating, Kochia (kochia (Kochia scoparia); [11]) | Plant response rating, Kochia (kochia (Kochia scoparia); [12]) | Plant response rating, Kochia (kochia (Kochia scoparia); [14]) | Plant response rating, Pigweed [2, 12] | Pigweed plant response rating [2, 13] | Plant response rating, Pigweed [2, 14] | Plant response rating, Ragweed [3, 11] | Plant response rating, Ragweed [3, 12] | Plant response rating, Ryegrass, Italian [4, 11] | Plant response rating, Ryegrass, Italian [4, 12] | Ryegrass, Italian plant response rating [4, 13] | Plant response rating, Ryegrass, Italian [4, 14] | Oilseed Rape plant response rating [7, 31] | Plant response rating, Oilseed Rape [7, 26] | Oilseed Rape plant response rating [7, 32]
30: Plant response rating, Wheat [5, 9] | Plant response rating, Wheat [5, 10] | Plant response rating, Ragweed [8, 26]
50: Plant response rating, Corn (corn (Zea mays); [10]) | Foxtail, Giant plant response rating [1, 13]
0: Plant response rating, Johnsongrass [6, 20] | Plant response rating, Ragweed [8, 18]
90: Plant response rating, Foxtail, Giant [1, 14] | Plant response rating, Pigweed [2, 11] | Plant response rating, Ragweed [3, 14] | Plant response rating, Oilseed Rape [7, 27] | Plant response rating, Oilseed Rape [7, 28]
25: Plant response rating, Johnsongrass [6, 26]
